Laboratory results: PubChem BioAssay AID2060888 (Molecular Pharmacology Branch, DTP, NCI, 2025)

Test system: 695427-040-R-J1-PDC complex spheroid viability
Assay: Anticancer human tumor 695427-040-R-J1-PDC patient-derived colon adenocarcinoma cell line growth inhibition [RAS]
Conditions: for IC50: curve of first compound; for viability, T/C: stronger effect = lower value; active = viability on the fitted dose curve at most 10% of control; inactive = the rest
How it was run: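 Multi-cell-type spheroids: tumor cells plus HUVEC endothelial cells and mesenchymal stem cells. RAS-pathway inhibitors were combined with targeted agents, each dosed in half-log steps down from clinical Cmax, or from 10 microM when Cmax was unknown.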

[1] = second compound 0.000949 µM, first compound 0.0316 µM
[2] = second compound 0.000949 µM, first compound 0.1 µM
[3] = second compound 0.000949 µM, first compound 0.316 µM
[4] = second compound 0.000949 µM, first compound 1 µM
[5] = second compound 0.000949 µM, first compound 3.16 µM
[6] = second compound 0.000949 µM, first compound 10 µM
[7] = second compound 0.003 µM, first compound 0.0316 µM
[8] = second compound 0.003 µM, first compound 0.1 µM
[9] = second compound 0.003 µM, first compound 0.316 µM
[10] = second compound 0.003 µM, first compound 1 µM
[11] = second compound 0.003 µM, first compound 3.16 µM
[12] = second compound 0.003 µM, first compound 10 µM
[13] = second compound 0.00949 µM, first compound 0.0316 µM
[14] = second compound 0.00949 µM, first compound 0.1 µM
[15] = second compound 0.00949 µM, first compound 0.316 µM
[16] = second compound 0.00949 µM, first compound 1 µM
[17] = second compound 0.00949 µM, first compound 3.16 µM
[18] = second compound 0.00949 µM, first compound 10 µM
[19] = second compound 0.03 µM, first compound 0.0316 µM
[20] = second compound 0.03 µM, first compound 0.1 µM
[21] = second compound 0.03 µM, first compound 0.316 µM
[22] = second compound 0.03 µM, first compound 1 µM
[23] = second compound 0.03 µM, first compound 3.16 µM
[24] = second compound 0.03 µM, first compound 10 µM
[25] = second compound 0.0949 µM, first compound 0.0316 µM
[26] = second compound 0.0949 µM, first compound 0.1 µM
[27] = second compound 0.0949 µM, first compound 0.316 µM
[28] = second compound 0.0949 µM, first compound 1 µM
[29] = second compound 0.0949 µM, first compound 3.16 µM
[30] = second compound 0.0949 µM, first compound 10 µM
[31] = second compound 0.3 µM, first compound 0.0316 µM
[32] = second compound 0.3 µM, first compound 0.1 µM
[33] = second compound 0.3 µM, first compound 0.316 µM
[34] = second compound 0.3 µM, first compound 1 µM
[35] = second compound 0.3 µM, first compound 3.16 µM
[36] = second compound 0.3 µM, first compound 10 µM
[37] = second compound 0.000949 µM, first compound 0.00316 µM
[38] = second compound 0.000949 µM, first compound 0.01 µM
[39] = second compound 0.003 µM, first compound 0.00316 µM
[40] = second compound 0.003 µM, first compound 0.01 µM
[41] = second compound 0.00949 µM, first compound 0.00316 µM
[42] = second compound 0.00949 µM, first compound 0.01 µM
[43] = second compound 0.03 µM, first compound 0.00316 µM
[44] = second compound 0.03 µM, first compound 0.01 µM
[45] = second compound 0.0949 µM, first compound 0.00316 µM
[46] = second compound 0.0949 µM, first compound 0.01 µM
[47] = second compound 0.3 µM, first compound 0.00316 µM
[48] = second compound 0.3 µM, first compound 0.01 µM
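Note: viability read after seven days of drug exposure.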
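Throughout, for viability, T/C: 100% = DMSO vehicle control viability.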

CC(C)NCC(C(=O)N1CCN(c2ncnc3c2C(C)CC3O)CC1)c1ccc(Cl)cc1 (stereo not drawn) + CCn1c(-c2cccnc2C(C)OC)c2c3cc(ccc31)N1CCOC(CC(NC(=O)C(C(C)C)N(C)C(=O)C3(F)CCN(C(=O)C#CC(C)(C)N(C)C)CC3)C(=O)N3CCCC(N3)C(=O)OCC(C)(C)C2)C1
inactive: viability, T/C [1] 86% | viability, T/C [2] 91.1% | viability, T/C [3] 91.7% | viability, T/C [4] 68.2% | viability, T/C [5] 62.6% | viability, T/C [6] 60.8% | viability, T/C [7] 103% | viability, T/C [8] 91.4% | viability, T/C [9] 65.9% | viability, T/C [10] 84.7% | viability, T/C [11] 74.7% | viability, T/C [12] 54.6% | viability, T/C [13] 113% | viability, T/C [14] 89.5% | viability, T/C [15] 59.9% | viability, T/C [16] 85.2% | viability, T/C [17] 63.4% | viability, T/C [18] 63.5% | viability, T/C [19] 91.6% | viability, T/C [20] 75.3% | viability, T/C [21] 81.5% | viability, T/C [22] 83.8% | viability, T/C [23] 59.2% | viability, T/C [24] 56.9% | viability, T/C [25] 88.5% | viability, T/C [26] 88.7% | viability, T/C [27] 72.6% | viability, T/C [28] 70.8% | viability, T/C [29] 77.1% | viability, T/C [30] 71.2% | viability, T/C [31] 105% | viability, T/C [32] 72.8% | viability, T/C [33] 79.8% | viability, T/C [34] 74.2% | viability, T/C [35] 57% | viability, T/C [36] 56.2%
> 10000 nM: IC50 (second compound 0.000949 µM) | IC50 (second compound 0.003 µM) | IC50 (second compound 0.00949 µM) | IC50 (second compound 0.03 µM) | IC50 (second compound 0.0949 µM) | IC50 (second compound 0.3 µM)

CC(C)n1nc(-c2ccc3oc(N)nc3c2)c2c(N)ncnc21 + CCn1c(-c2cccnc2C(C)OC)c2c3cc(ccc31)N1CCOC(CC(NC(=O)C(C(C)C)N(C)C(=O)C3(F)CCN(C(=O)C#CC(C)(C)N(C)C)CC3)C(=O)N3CCCC(N3)C(=O)OCC(C)(C)C2)C1
inactive: viability, T/C (second compound 0.000949 µM, first compound 0.000316 µM) 107% | viability, T/C (second compound 0.000949 µM, first compound 0.001 µM) 120% | viability, T/C [37] 78.7% | viability, T/C [38] 90.6% | viability, T/C [1] 74.3% | viability, T/C [2] 56.2% | viability, T/C (second compound 0.003 µM, first compound 0.000316 µM) 107% | viability, T/C (second compound 0.003 µM, first compound 0.001 µM) 84.3% | viability, T/C [39] 98.6% | viability, T/C [40] 83.5% | viability, T/C [7] 62.1% | viability, T/C [8] 57.3% | viability, T/C (second compound 0.00949 µM, first compound 0.000316 µM) 110% | viability, T/C (second compound 0.00949 µM, first compound 0.001 µM) 89.7% | viability, T/C [41] 85.5% | viability, T/C [42] 74.2% | viability, T/C [13] 73.5% | viability, T/C [14] 56.5% | viability, T/C (second compound 0.03 µM, first compound 0.000316 µM) 108% | viability, T/C (second compound 0.03 µM, first compound 0.001 µM) 80.2% | viability, T/C [43] 66% | viability, T/C [44] 78.3% | viability, T/C [19] 77.7% | viability, T/C [20] 62.5% | viability, T/C (second compound 0.0949 µM, first compound 0.000316 µM) 86.1% | viability, T/C (second compound 0.0949 µM, first compound 0.001 µM) 79.2% | viability, T/C [45] 66.8% | viability, T/C [46] 76.9% | viability, T/C [25] 73.4% | viability, T/C [26] 48.9% | viability, T/C (second compound 0.3 µM, first compound 0.000316 µM) 83.2% | viability, T/C (second compound 0.3 µM, first compound 0.001 µM) 104% | viability, T/C [47] 81% | viability, T/C [48] 74.8% | viability, T/C [31] 64.5% | viability, T/C [32] 48%
89.7 nM: IC50 (second compound 0.3 µM)
95.3 nM: IC50 (second compound 0.0949 µM)
> 100 nM: IC50 (second compound 0.000949 µM) | IC50 (second compound 0.003 µM) | IC50 (second compound 0.00949 µM) | IC50 (second compound 0.03 µM)

CC(Nc1ccc2c(c1)OCCn1cc(N3C(=O)OCC3C(F)F)nc1-2)C(N)=O (stereo not drawn) + CCn1c(-c2cccnc2C(C)OC)c2c3cc(ccc31)N1CCOC(CC(NC(=O)C(C(C)C)N(C)C(=O)C3(F)CCN(C(=O)C#CC(C)(C)N(C)C)CC3)C(=O)N3CCCC(N3)C(=O)OCC(C)(C)C2)C1
inactive: viability, T/C [1] 80.8% | viability, T/C [2] 68.8% | viability, T/C [3] 68.7% | viability, T/C [4] 34.9% | viability, T/C [5] 80.1% | viability, T/C [6] 39.4% | viability, T/C [7] 95.4% | viability, T/C [8] 79.6% | viability, T/C [9] 62.1% | viability, T/C [10] 50.1% | viability, T/C [11] 86% | viability, T/C [12] 37.5% | viability, T/C [13] 103% | viability, T/C [14] 84.1% | viability, T/C [15] 72.3% | viability, T/C [16] 62.9% | viability, T/C [17] 81.9% | viability, T/C [18] 42.3% | viability, T/C [19] 91.8% | viability, T/C [20] 70.1% | viability, T/C [21] 59.9% | viability, T/C [22] 45.3% | viability, T/C [23] 89.3% | viability, T/C [24] 37.8% | viability, T/C [25] 71.8% | viability, T/C [26] 67.5% | viability, T/C [27] 52.6% | viability, T/C [28] 50.4% | viability, T/C [29] 100% | viability, T/C [30] 40.9% | viability, T/C [31] 69.6% | viability, T/C [32] 52% | viability, T/C [33] 70.8% | viability, T/C [34] 52.8% | viability, T/C [35] 69.1% | viability, T/C [36] 42.1%
> 10000 nM: IC50 (second compound 0.000949 µM) | IC50 (second compound 0.00949 µM) | IC50 (second compound 0.03 µM) | IC50 (second compound 0.0949 µM) | IC50 (second compound 0.3 µM)
8530 nM: IC50 (second compound 0.003 µM)

O=C(c1ccc(F)c(F)c1Nc1ccc(I)cc1F)N1CC(O)([C@@H]2CCCCN2)C1 + CCn1c(-c2cccnc2C(C)OC)c2c3cc(ccc31)N1CCOC(CC(NC(=O)C(C(C)C)N(C)C(=O)C3(F)CCN(C(=O)C#CC(C)(C)N(C)C)CC3)C(=O)N3CCCC(N3)C(=O)OCC(C)(C)C2)C1
active: viability, T/C [10] 6.84% | viability, T/C [16] 9.42% | viability, T/C [22] 7.71% | viability, T/C [28] 7.03% | viability, T/C [34] 6.79%
66.4 nM: IC50 (second compound 0.0949 µM)
35.4 nM: IC50 (second compound 0.3 µM)
80.3 nM: IC50 (second compound 0.00949 µM)
81.2 nM: IC50 (second compound 0.000949 µM)
67 nM: IC50 (second compound 0.03 µM)
85.5 nM: IC50 (second compound 0.003 µM)
inactive: viability, T/C [37] 71.6% | viability, T/C [38] 85.1% | viability, T/C [1] 71% | viability, T/C [2] 44.4% | viability, T/C [3] 19.4% | viability, T/C [4] 9.33% | viability, T/C [39] 91.1% | viability, T/C [40] 88.8% | viability, T/C [7] 66.6% | viability, T/C [8] 51.4% | viability, T/C [9] 17.6% | viability, T/C [41] 88.6% | viability, T/C [42] 67.5% | viability, T/C [13] 69.9% | viability, T/C [14] 48.1% | viability, T/C [15] 22.3% | viability, T/C [43] 105% | viability, T/C [44] 80.2% | viability, T/C [19] 66.3% | viability, T/C [20] 42.9% | viability, T/C [21] 22.1% | viability, T/C [45] 81.5% | viability, T/C [46] 84% | viability, T/C [25] 60.6% | viability, T/C [26] 43.1% | viability, T/C [27] 20.8% | viability, T/C [47] 73.4% | viability, T/C [48] 65.5% | viability, T/C [31] 47% | viability, T/C [32] 42% | viability, T/C [33] 19.2%
